{"source": "patent US20220211678A1", "about": "“USES OF (+)-A-DIHYDROTETRABENAZINE IN METHODS OF TREATING MOVEMENT DISORDER” (ADEPTIO PHARMACEUTICALS LIMITED, priority 2017, published 2022)", "key": {"VMAT2": {"target": "T1, VMAT2 (Homo sapiens, UniProt Q05940)", "T1 construct": "from tissue; host or cells: brain of living human volunteers, measured by PET", "T1 sequence (Q05940 whole entry)": "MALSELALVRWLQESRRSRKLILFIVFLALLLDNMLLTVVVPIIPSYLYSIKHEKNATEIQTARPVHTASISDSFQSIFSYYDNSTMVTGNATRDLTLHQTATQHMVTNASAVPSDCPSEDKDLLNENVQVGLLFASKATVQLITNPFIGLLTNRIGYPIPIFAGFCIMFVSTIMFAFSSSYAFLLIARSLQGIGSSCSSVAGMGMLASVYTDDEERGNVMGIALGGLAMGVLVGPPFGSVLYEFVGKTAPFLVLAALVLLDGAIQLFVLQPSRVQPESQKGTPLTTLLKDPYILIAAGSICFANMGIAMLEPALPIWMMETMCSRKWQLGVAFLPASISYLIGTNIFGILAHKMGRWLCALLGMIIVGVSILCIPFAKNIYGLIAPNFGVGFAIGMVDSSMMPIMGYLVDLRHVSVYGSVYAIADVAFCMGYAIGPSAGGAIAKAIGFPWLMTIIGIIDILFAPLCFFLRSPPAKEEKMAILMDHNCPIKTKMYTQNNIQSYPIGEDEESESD", "experiment": "% VMAT2 blocking by PET scan 60-120 minutes after oral dosing of human volunteers (Example 1A)", "assay_type": "in vivo", "text": "Complete blocking of VMAT2 is considered undesirable as this can lead to unwanted side effects, such as Parkinsonism. […] The levels of VMAT2 blocking can be determined by competitive binding studies using Positron Emission Tomography (PET). By co-administering a radioactive ligand with the compound of interest at various concentrations, the proportion of binding sites occupied can be determined (see for example, Matthews et al., “Positron emission tomography molecular imaging for drug development”, Br. J. Clin. Pharmacol., 73:2, 175-186). Accordingly, the invention also provides:\nIn four of the volunteers, blood sample were taken at 30, 60, 120 and 180 minutes after drug administration. Blood samples were not taken from the fifth volunteer. At 60 minutes after drug administration, PET scans were initiated and these were stopped at 120 minutes after drug administration.\nThe experiment was carried out at dosages of 7.5 mg, 15 mg and 22.5 mg."}, "amphetamine-induced rats": {"system": "amphetamine-induced rats", "experiment": "Amphetamine-induced locomotor activity and stereotypic behaviour, open field arena (Example 2, Studies 1, 2, 4)", "assay_type": "in vivo, rat", "details": "for normalised total stereotypic behaviour, compared to vehicle-amphetamine group / total distance travelled, compared to vehicle-amphetamine group: amphetamine at t=30 min; for locomotor activity compared to the vehicle-amphetamine group (conclusion) / stereotypic behaviour compared to the vehicle-amphetamine group (conclusion): risperidone 1 mg/kg", "text": "Dopaminergic models for Tourette's syndrome use systemic or focal administration of dopamine agonists such as amphetamine. After injection with amphetamine, a test animal expresses stereotypic behaviour. In particular, involvement of a dopaminergic system implicated in Tourette's syndrome wild type mice and rats can be stimulated with amphetamine and the resulting hyperactivity and stereotypies can be reversed with dopamine antagonists such as risperidone and haloperidol (Tourette's syndrome—Animal Models for Screening, Charles River Discovery Research Services, Finland).\nAll animal experiments were carried out according to the National Institute of Health (NIH) guidelines for the care and use of laboratory animals, and approved by the National Animal Experiment Board, Finland. Male CD (Charles River Laboratories, Germany) at weight range of 200-250 g (165-200 g upon arrival) were used for the experiments. Animals were housed at a standard temperature (22±1° C.) and in a light-controlled environment (lights on from 7 am to 8 pm) with ad libitum access to food and water.\nLocomotor activity of the rats was tested in open field arena. The open field test was performed during the rat light cycle and under a normal lighting evenly distributed to the test chambers. The paths of the rats were recorded by activity monitor (Med. Associates Inc.).\nDosing the vehicle, vehicle-amphetamine, (+)-α-DHTBZ or risperidone was done prior to LMA test. The rats were placed in the centre of the arena, and the path was recorded for 60 minutes.\n(§1) Animals were grouped as follows: • Group 1: 10 rats treated with Vehicle (t=0 min) and Vehicle (t=30 min) • Group 2: 10 rats treated with Vehicle (t=0 min) and Amphetamine (t=30 min) • Group 3: 10 rats treated with (+)-α-DHTBZ 0.5 mg/kg (t=0 min) and Amphetamine (t=30 min) • Group 4: 10 rats treated with (+)-α-DHTBZ 1 mg/kg (t=0 min) and Amphetamine (t=30 min) • Group 5: 10 rats treated with (+)-α-DHTBZ 1.5 mg/kg (t=0 min) and Amphetamine (t=30 min) • Group 6: 10 rats treated with (+)-α-DHTBZ 2 mg/kg (t=0 min) and Amphetamine (t=30 min) • Group 7: 10 rats treated with risperidone 1 mg/kg (t=0 min) and Amphetamine (t=30 min)\n(§2) Rats dosed with either vehicle, (+)-α-DHTBZ 0.5 mg/kg, (+)-α-DHTBZ 1 mg/kg, (+)-α-DHTBZ 1.5 mg/kg, (+)-α-DHTBZ 2 mg/kg or Risperidone 1 mg/kg were subjected to LMA testing first for 30 min and then for 60 minutes after vehicle or amphetamine challenge. Resulting locomotor activity was evaluated in 3 min bins and as a total over the testing period.\nas §2, with “stereotypic” for “locomotor”\nAnimals were grouped as follows: • Group 1: 10 rats treated with Vehicle (t=0 min) and Vehicle (t=30 min) • Group 2: 10 rats treated with Vehicle (t=0 min) and Amphetamine (t=30 min) • Group 3: 10 rats treated with (+)-α-DHTBZ 0.1 mg/kg (t=0 min) and Amphetamine (t=30 min) • Group 4: 10 rats treated with (+)-α-DHTBZ 0.25 mg/kg (t=0 min) and Amphetamine (t=30 min) • Group 5: 10 rats treated with risperidone 1 mg/kg (t=0 min) and Amphetamine (t=30 min)\nas §1, with “(+)-α-DHTBZ 1” for “(+)-α-DHTBZ 0.5”, “(+)-α-DHTBZ 1.5” for “(+)-α-DHTBZ 1”, “with Valbenazine 1” for “with (+)-α-DHTBZ 1.5”, “with Valbenazine 1.5” for “with (+)-α-DHTBZ 2”"}, "[1]": {"details": "Study 1, (+)-α-DHTBZ at all the tested doses (0.5, 1, 1.5, 2 mg/kg)"}}, "data": [{"smiles": "COc1cc2c(cc1OC)[C@H]1C[C@@H](O)[C@H](CC(C)C)CN1CC2", "note": "[(+)-α-dihydrotetrabenazine, (R,R,R)-3-isobutyl-9,10-dimethyloxy-1,3,4,5,7,11b-hexahydro-2H-pyrido[2,1-a]isoquinolin-2-ol]", "values": [{"measurement": "% VMAT2 blocking", "setting": "VMAT2; 7.5 mg oral, PET scan 60-120 min after administration, subject 1 (112 kg)", "value": 54, "unit": "%"}, {"measurement": "% VMAT2 blocking", "setting": "VMAT2; 7.5 mg oral, PET scan 60-120 min after administration, subject 2 (76 kg)", "value": 73, "unit": "%"}, {"measurement": "% VMAT2 blocking", "setting": "VMAT2; 7.5 mg oral, PET scan 60-120 min after administration, subject 3 (129 kg)", "value": 62, "unit": "%"}, {"measurement": "% VMAT2 blocking", "setting": "VMAT2; 7.5 mg oral, PET scan 60-120 min after administration, subject 4 (59 kg)", "value": 84, "unit": "%"}, {"measurement": "% VMAT2 blocking", "setting": "VMAT2; 7.5 mg oral, PET scan 60-120 min after administration, subject 5 (91 kg)", "value": 73, "unit": "%"}, {"measurement": "% VMAT2 blocking", "setting": "VMAT2; 7.5 mg oral, PET scan 60-120 min after administration, subject 6 (68 kg)", "value": 60, "unit": "%"}, {"measurement": "% VMAT2 blocking", "setting": "VMAT2; 15 mg oral, PET scan 60-120 min after administration, subject 1 (112 kg)", "value": 73, "unit": "%"}, {"measurement": "% VMAT2 blocking", "setting": "VMAT2; 15 mg oral, PET scan 60-120 min after administration, subject 2 (76 kg)", "value": 83, "unit": "%"}, {"measurement": "% VMAT2 blocking", "setting": "VMAT2; 15 mg oral, PET scan 60-120 min after administration, subject 3 (129 kg)", "value": 69, "unit": "%"}, {"measurement": "% VMAT2 blocking", "setting": "VMAT2; 15 mg oral, PET scan 60-120 min after administration, subject 4 (59 kg)", "value": 89, "unit": "%"}, {"measurement": "% VMAT2 blocking", "setting": "VMAT2; 15 mg oral, PET scan 60-120 min after administration, subject 5 (91 kg)", "value": 79, "unit": "%"}, {"measurement": "% VMAT2 blocking", "setting": "VMAT2; 15 mg oral, PET scan 60-120 min after administration, subject 6 (68 kg)", "value": 76, "unit": "%"}, {"measurement": "% VMAT2 blocking", "setting": "VMAT2; 22.5 mg oral, PET scan 60-120 min after administration, subject 1 (112 kg)", "value": 75, "unit": "%"}, {"measurement": "% VMAT2 blocking", "setting": "VMAT2; 22.5 mg oral, PET scan 60-120 min after administration, subject 2 (76 kg)", "value": 82, "unit": "%"}, {"measurement": "% VMAT2 blocking", "setting": "VMAT2; 22.5 mg oral, PET scan 60-120 min after administration, subject 3 (129 kg)", "value": 74, "unit": "%"}, {"measurement": "% VMAT2 blocking", "setting": "VMAT2; 22.5 mg oral, PET scan 60-120 min after administration, subject 5 (91 kg)", "value": 82, "unit": "%"}, {"measurement": "% VMAT2 blocking", "setting": "VMAT2; 22.5 mg oral, PET scan 60-120 min after administration, subject 6 (68 kg)", "value": 62, "unit": "%"}, {"measurement": "% VMAT2 blocking", "setting": "VMAT2; heavier individuals, doses as low as 7.5 mg", "value": "at least 50%"}, {"measurement": "normalised total stereotypic behaviour, compared to vehicle-amphetamine group", "setting": "amphetamine-induced rats; Study 1, 0.5 mg/kg", "value": "significantly different"}, {"measurement": "normalised total stereotypic behaviour, compared to vehicle-amphetamine group", "setting": "amphetamine-induced rats; Study 1, 1 mg/kg", "value": "significantly different"}, {"measurement": "normalised total stereotypic behaviour, compared to vehicle-amphetamine group", "setting": "amphetamine-induced rats; Study 1, 1.5 mg/kg", "value": "significantly different"}, {"measurement": "normalised total stereotypic behaviour, compared to vehicle-amphetamine group", "setting": "amphetamine-induced rats; Study 1, 2 mg/kg", "value": "significantly different"}, {"measurement": "locomotor activity compared to the vehicle-amphetamine group (conclusion)", "setting": "amphetamine-induced rats; [1]", "value": "lower locomotor activity"}, {"measurement": "stereotypic behaviour compared to the vehicle-amphetamine group (conclusion)", "setting": "amphetamine-induced rats; [1]", "value": "reduced stereotypic behaviour"}, {"measurement": "normalised total stereotypic behaviour, compared to vehicle-amphetamine group", "setting": "amphetamine-induced rats; Study 2, 0.1 mg/kg", "value": "significantly different"}, {"measurement": "normalised total stereotypic behaviour, compared to vehicle-amphetamine group", "setting": "amphetamine-induced rats; Study 2, 0.25 mg/kg", "value": "significantly different"}, {"measurement": "locomotor activity compared to the vehicle-amphetamine group (conclusion)", "setting": "amphetamine-induced rats; Study 2, (+)-α-DHTBZ at 0.25 mg/kg", "value": "lower locomotor activity"}, {"measurement": "stereotypic behaviour compared to the vehicle-amphetamine group (conclusion)", "setting": "amphetamine-induced rats; Study 2, (+)-α-DHTBZ at both the tested doses (0.1, 0.25 mg/kg)", "value": "reduced stereotypic behaviour"}, {"measurement": "locomotor activity compared to the vehicle-amphetamine group and the corresponding dose of Valbenazine (conclusion)", "setting": "amphetamine-induced rats; Study 4, 1 mg/kg and 1.5 mg/kg", "value": "lower locomotor activity"}, {"measurement": "normalised total stereotypic behaviour, compared to vehicle-amphetamine group", "setting": "amphetamine-induced rats; Study 4, 1 mg/kg", "value": "significantly different"}, {"measurement": "total distance travelled, compared to vehicle-amphetamine group", "setting": "amphetamine-induced rats; Study 4, 1 mg/kg", "value": "significantly different"}, {"measurement": "normalised total stereotypic behaviour, compared to vehicle-amphetamine group", "setting": "amphetamine-induced rats; Study 4, 1.5 mg/kg", "value": "significantly different"}, {"measurement": "total distance travelled, compared to vehicle-amphetamine group", "setting": "amphetamine-induced rats; Study 4, 1.5 mg/kg", "value": "significantly different"}, {"measurement": "stereotypic behaviour compared to the vehicle-amphetamine group and the corresponding dose of Valbenazine (conclusion)", "setting": "amphetamine-induced rats; Study 4, both the tested doses (1 mg/kg and 1.5 mg/kg)", "value": "reduced stereotypic behaviour"}]}]}
